# Columns and labels:
# [1] = system: spontaneous hypertensive rats (SHR); test: Oral study in SHR on 2.2% salt diet: blood pressure by tail cuff plethysmography; type: in vivo, rat; conditions: 4 weeks treatment, 100 or 500 pmol/kg/min orally in drinking solution, compared to controls (FIG. 13)
# Description: (§1) Fourteen week old SHR (on a 2.2% salt diet; Glen Forrest Stockfeeders) were randomly assigned to zero time control, test compound treatment (100 or 500 pmol/kg/min) in the drinking solution or control drinking solution (5% ethanol in deionised distilled water (n=5 each group). The rats assigned to zero time control group were anaesthetised and had their heart and kidneys harvested while rats assigned to control and test compound treatment were weighed twice weekly and had their drinking solution intake monitored to allow adjustment of the test compound concentration in the drinking solution to maintain a constant dose over the 4-week study period. Blood pressure was measured twice weekly by tail cuff plethysmography (PowerLab, ADInstruments, Castle Hill, NSW, Australia).
# [2] = system: spontaneous hypertensive rats (SHR); test: Oral study in SHR on 2.2% salt diet: kidney interstitial fibrosis, histomorphometry on Masson's trichrome stained sections; type: in vivo, rat; conditions: for Fibrosis in the kidney: 18 week old SHR on 2.2% salt diet, 4 weeks treatment, 500 pmol/kg/min orally, compared to controls (FIG. 17); for Histological sections from the kidneys (micrographs): rats on 2.2% salt diet treated four weeks with 500 pmol/kg/min, control has extensive fibrosis (FIG. 21)
# Description: as §1
# (§2) After 4 weeks rats were anaesthetised, and their hearts and kidneys harvested for quantitation of fibrosis.
# (§3) To quantitate tissue fibrosis tissue slices ≦3 mm thick were fixed in 10% buffered formalin for 24 hours, processed and embedded in paraffin. Three micron transverse sections were stained using Masson's trichrome stain. A minimum of […] random fields at magnification ×20 from transverse sections (5 at each of 2 levels) were digitized and the degree of fibrosis determined as a percent of field area of each digitized image using Image-Pro Plus V.7 (Media Cybernetics, Bethesda, Md., USA) then averaged to determine the level of fibrosis for tissue for each rat.
# [3] = system: spontaneous hypertensive rats (SHR); test: Oral study in SHR on 2.2% salt diet: myocardial fibrosis, histomorphometry on Masson's trichrome stained sections; type: in vivo, rat; conditions: for Fibrosis in the heart: 18 week old SHR on 2.2% salt diet, 4 weeks treatment, 500 pmol/kg/min orally, compared to controls (FIG. 16); for Histological sections from the hearts (micrographs): rats on 2.2% salt diet treated four weeks with 500 pmol/kg/min, control has extensive fibrosis (FIG. 20)
# Description: as §1, §2, §3
melting point [°C],SMILES,Mean diastolic blood pressure [1],Mean systolic blood pressure [1],Fibrosis in the kidney [2],Histological sections from the kidneys (micrographs) [2],Fibrosis in the heart [3],Histological sections from the hearts (micrographs) [3]
232 to 233,"NC(=O)CCc1cc(-c2ccccc2)ccc1-c1cc(O)cc(O)c1 [T20, 3-(3,5-Dihydroxy-[1,1′:4′,1″-terphenyl]-2′-yl)propanamide]",,decreased blood pressure compared to controls,decreased compared to controls,fibrosis has been reduced to thin bands incompletely surrounding some but not all tubules,decreased compared to controls,no discrete areas of fibrosis are present
250 to 251,"NC(=O)CCc1cc(-c2ccccc2)ccc1-c1ccc2[nH]c(=O)[nH]c2c1 [T31, 3-(4-(2-Oxo-2,3-dihydro-1H-benzo[d]imidazol-5-yl)-[1,1′-biphenyl]-3-yl)propanamide]",decreased compared to controls,decreased blood pressure compared to controls,decreased compared to controls,fibrosis has been reduced to thin bands incompletely surrounding some but not all tubules,decreased compared to controls,no discrete areas of fibrosis are present
248 to 249,"NC(=O)CCc1cc(-c2ccccc2)ccc1-c1ccnc(N)c1 [T48, 3-(4-(2-Aminopyridin-4-yl)-[1, 1′-biphenyl]-3-yl)propanamide]",,decreased blood pressure compared to controls,decreased compared to controls,,decreased compared to controls,

# Second part, the compound before the results:
SMILES,melting point [°C],Mean diastolic blood pressure [1],Mean systolic blood pressure [1],Fibrosis in the kidney [2],Histological sections from the kidneys (micrographs) [2],Fibrosis in the heart [3],Histological sections from the hearts (micrographs) [3]
"CS(=O)(=O)Nc1cccc(-c2ccc(-c3ccccc3)cc2CCC(N)=O)c1 [T1, 3-(3-(Methylsulfonamido)-[1,1′:4′,1″-terphenyl]-2′-yl)propanamide]",,decreased compared to controls,decreased blood pressure compared to controls,decreased compared to controls,fibrosis has been reduced to thin bands incompletely surrounding some but not all tubules,decreased compared to controls,no discrete areas of fibrosis are present
"NC(=O)CCc1cc(-c2ccccc2)ccc1-c1cccc(NC=O)c1 [T2, 3-(3-Formamido-[1,1′:4′,1″-terphenyl]-2′-yl)propanamide]",,decreased compared to controls,decreased blood pressure compared to controls,decreased compared to controls,fibrosis has been reduced to thin bands incompletely surrounding some but not all tubules,decreased compared to controls,no discrete areas of fibrosis are present
"NC(=O)CCc1cc(-c2ccccc2)ccc1-c1ccc2c(c1)NC(=O)C2 [T25, 3-(4-(2-Oxoindolin-6-yl)-[1,1′-biphenyl]-3-yl)propanamide]",219 to 222,,,,,,
"CS(=O)(=O)Nc1cc(NS(C)(=O)=O)cc(-c2ccc(-c3ccccc3)cc2CCC(N)=O)c1 [T70, 3-(3,5-Di(methylsulfonamido)-[1,1′:4′,1″-terphenyl]-2′-yl)propanamide]",,decreased compared to controls,decreased blood pressure compared to controls,decreased compared to controls,,decreased compared to controls,

# From US9630935B2, “Compositions for the treatment of hypertension and/or fibrosis” (Vectus Biosystems Limited, priority 2013, dated 2017)
